Data on one compound can be found in patent publication US20220249415A1, “COMPOSITION OF AZELAIC ACID HAVING ADIPOSE TRIGLYCERIDE HYDROLYSIS EFFECT” (Korea University Research and Business Foundation, priority 2018, published 2022).

Data set [1] in a line: Dose evaluation experiment, oral administration, body weight control. Type of data set: in vivo. As to conditions: 6 mg/kg of azelaic acid, 6 weeks. As for the experimental part:
Azelaic acid was orally administered for 6 weeks, and the body weight control effects of three doses (6, 17, 20 mg/kg) were compared. The commercially available anti-obesity drugs Xenical and Panbesy were used as positive controls. […] Similar results were also obtained when a secondary experiment was performed to confirm the results.

For data set [2] the following is noted: reported results of a study; formed in the body; cited from earlier work.
The test system of data set [3] is HepG2 cells. In words: Treatment of human liver tissue cell line HepG2 with azelaic acid. Type of data set: cell-based. The note with it: azelaic acid 50 μM.
Data set [4] relates to hAMSC cells. Briefly: Treatment of human adipocyte line hAMSC with azelaic acid. Type of data set: cell-based. The note with it: azelaic acid 50 μM. Here is the method:
The anti-obesity effect was confirmed by treating a human adipocyte line, namely hAMSC cells (Cell Bio, CEFO, Seoul Korea), with azelaic acid (50 μM).

Data set [5] has as its target Olfr544 (Mus musculus, UniProt E9PX47). Briefly: CRE-luciferase reporter gene assay in Hana3A cell line transfected with Olfr544 expression vector. It counts as cell-based. As for the experimental part:
In order to evaluate an activity of azelaic acid as an Olfr544 ligand in vitro assay, reporter gene assay was performed. Generally, a degree of gene expression of the olfactory receptor (OR) in tissue cells was low and a degree of protein expression also was low, such that research into the olfactory receptor was difficult. In order to solve this problem, a Hana3A cell line was supplied from a team led by professor Hiroaki Matsunami of Duke University and used in an experiment (Zhuang H., et al., Nat. Protocol, 3:1402-1413, 2008).
The reporter gene assay was performed as follows. First, after an Olfr544 expression vector and a cAMP response element (CRE)-Luciferase reporter vector were transfected into the Hana3A cell line, the transfected Hana3A cell line was treated with azelaic acid for 18 hours. Then, a luciferase activity was measured using a Firefly luciferase (FL) assay kit, and a dose response curve (DRC) was drawn based on the measured luciferase activity, thereby calculating a 50% effective concentration (EC50) corresponding to an index for determining an effect as a ligand (agonist).
Background: Reporter assays use an easily measured gene product as a stand-in for the process of interest.

Data set [6] concerns 3T3-L1 adipocytes. Briefly: Intracellular cholesterol concentration (Amplex Red kit) in 3T3-L1 adipocytes. As to conditions: azelaic acid 25 or 50 μM. Type of data set: cell-based, mouse. Here is the method:
In order to confirm whether or not azelaic acid induces triglyceride hydrolysis in adipocytes by activating a cAMP-PKA-HSL signaling pathway, the adipocytes were directly treated with azelaic acid, and concentrations of intracellular lipids were measured. […] Then, a concentration of triglycerides was measured using a TG assay kit (BioVision, California, U.S.) and a concentration of cholesterol was measured using an Amplex Red cholesterol assay kit (Invitrogen, California, U.S.).

Data set [7] concerns 3T3-L1 adipocytes. Briefly: Intracellular calcium assay (Fluo-4 Direct) in 3T3-L1 adipocytes. Type of data set: cell-based, mouse. Here is the method:
Therefore, changes in concentrations of cAMP, IP-one (metabolite of IP3), and calcium, which are second messengers by azelaic acid corresponding to the Olfr544 ligand, in 3T3-L1 adipocytes were measured. Since IP3 has low stability to thereby be easily decomposed to IP-one, an amount of intracellular IP-One (metabolite of IP3) was quantified instead of IP3. The concentration of intracellular calcium was measured using a Fluo-4 Direct™ Calcium Assay Kit (Invitrogen, California, U.S.) containing a fluorescent dye for labeling calcium ions. The cultured 3T3-L1 adipocytes were obtained and subjected to centrifugation, and then only pellets were diluted in a Fluo-4 Direct™ calcium assay buffer solution contained in the kit at a concentration of 2.5×10^6 cells/mL. After the resultant was seeded in a 96-well plate and cultured at 37° C. under 5% CO2 conditions for 60 minutes, 50 μL of a 2×Fluo-4 Direct™ calcium reagent loading solution was seeded in the 96-well plate and cultured at 37° C. under 5% CO2 conditions for 30 minutes. Then, fluorescence was measured at excitation and emission wavelengths of 494 nm and 516 nm.

The target of data set [8] is T1, OR2K2 (Homo sapiens, UniProt Q8NGT1, D270A).
T1 construct: expressed in transfected cells; host or cells: Hana3A
T1 sequence (Q8NGT1 1-316 D270A): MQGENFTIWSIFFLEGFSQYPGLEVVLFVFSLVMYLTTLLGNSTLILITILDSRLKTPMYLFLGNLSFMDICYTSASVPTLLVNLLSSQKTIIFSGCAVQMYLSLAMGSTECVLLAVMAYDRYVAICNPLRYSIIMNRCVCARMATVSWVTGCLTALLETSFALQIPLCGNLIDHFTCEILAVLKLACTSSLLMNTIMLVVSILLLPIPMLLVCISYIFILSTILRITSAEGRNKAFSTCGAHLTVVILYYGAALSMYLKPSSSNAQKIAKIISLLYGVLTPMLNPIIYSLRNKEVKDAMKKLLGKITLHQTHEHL
Briefly: Luciferase assay of OR2K2 mutants transfected into Hana3A cells. As to conditions: OR2K2 D270A mutant in Hana3A cells. Type of data set: cell-based. The source says: In order to confirm the binding site of the olfactory receptor OR2K2 protein that binds to azelaic acid, among amino acids, Y120, which is a tyrosine (Y) residue, E159, which is a glutamate (E) residue, and D270, which is an aspartate (D) residue, were predicted through in-silico modeling, and the corresponding position of the predicted amino acid residue was subjected to site-directed mutagenesis to obtain a mutant. For negative controls, Y120A, E159A, and D270A mutants in which all three amino acid residues were replaced with alanine were used. For positive controls, Y120F, E159D, and D270E mutants, including Y120F replaced with phenylalanine (F) for Y120, E159D replaced with aspartate for E159, and D270E replaced with glutamate for D270, were used.
The cDNA clone including the sequence of each OR2K2 mutant for measuring the binding affinity of azelaic acid was transfected into Hana3A cells, and a luciferase assay was performed. […] This is deemed to be because azelaic acid binds to OR2K2 by reacting the E159 and D270 moieties of OR2K2 with both carboxyl groups of azelaic acid.

For data set [9], the system named is 3T3-L1 adipocytes. In words: Western blot of phosphorylation of CREB and HSL in 3T3-L1 adipocytes. As to conditions: azelaic acid 50 μM, 2 hours, vs control. It counts as cell-based, mouse. The text has this: When the PKA protein activity is increased by azelaic acid, phosphorylation of target proteins of PKA is increased. Therefore, phosphorylation of cAMP-response element binding protein (CREB) and hormone-sensitive lipase (HSL) known as target proteins of PKA was confirmed by a western blot experiment. […] Primary antibodies used in the experiment were anti-phospho-CREB and anti-phospho-HSL antibodies (Santa Cruz, Calif., U.S.).
On the technique in general: A western blot detects proteins with antibodies after separation by electrophoresis.

Molecules are shown by their SMILES. pEC50: −log10 of the molar value.

Sequence of Olfr544 (E9PX47 entry or part of it): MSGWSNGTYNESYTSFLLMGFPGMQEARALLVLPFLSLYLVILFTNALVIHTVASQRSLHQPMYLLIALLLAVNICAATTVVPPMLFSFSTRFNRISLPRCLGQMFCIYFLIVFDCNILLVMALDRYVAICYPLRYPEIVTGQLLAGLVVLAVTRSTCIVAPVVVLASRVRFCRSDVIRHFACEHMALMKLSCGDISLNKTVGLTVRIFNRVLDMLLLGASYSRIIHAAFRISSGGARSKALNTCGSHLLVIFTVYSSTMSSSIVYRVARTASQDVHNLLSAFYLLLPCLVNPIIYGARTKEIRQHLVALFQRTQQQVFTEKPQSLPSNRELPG

For orientation: pEC50 means −log10 of the EC50, conventionally taken in molar units. `O=C(O)CCCCCCCC(=O)O` [azelaic acid, nonanedioic acid]: the body weight result in data set [1] is “Significant body weight reduction efficacy”. In addition, in [2], the “concentration of azelaic acid in a human body” value was 10 to 50 µM. Also, the triglyceride concentration entry in [3] (HepG2 cells (lipid-loaded)) is recorded as “significantly decreased”. For the same compound, in data set [3] (HepG2 cells), the “CREB phosphorylation (p-CREB)” value is listed as “increased”, the cAMP-PKA signaling pathway result is on record as “activated”, the “expression of fatty acid oxidation-related gene PPAR-α” value is listed as “increased” and the “fatty acid oxidation (FA oxidation)” value is “increased”. Besides, in [4], the cAMP-PKA signaling entry is recorded as “activated”, the calcium concentration result was “no change”, the “inositol phosphate (IP) concentration” value is reported as “no change” and the release of glycerol result was “promoted”. Moreover, the pEC50 in data set [5] (Olfr544 + CRE-Luciferase reporter in Hana3A cells, 18 hours) was 4.53. The Olfr544 activity result in data set [5] (concentration range of 1 to 1000 μM) is recorded as “concentration-dependently increased”. Moreover, in data set [6], the “concentration of intracellular cholesterol” value was “no significant change”. Also, in data set [7], the “concentration of intracellular calcium” value is given as “did not affect”. In [8], the “activity of azelaic acid (luciferase)” value is listed as “statistically significantly decreased”. In addition, in data set [9], the “phosphorylation of CREB” value is “rapidly increased” and the “phosphorylation of HSL” value is “rapidly increased”.
